From ChEMBL document CHEMBL3885861, “Open TG-GATES”

Organism: Rattus norvegicus
Experiment: Open TG-GATES - Regimen: Daily Repeat
Type: toxicity, organism-based, Sprague-Dawley
Design: regimen Daily Repeat, gender Male, age 6 weeks
Conditions: in vivo, po, 30 mg/kg, route gavage, dose level High; for APTT / Bas / Eos / Fbg / Hb / Ht / Lym / MCH / MCHC / MCV / Mono / Neu / PT / Plat / RBC / Ret / WBC: tissue Blood; for KIDNEY_L / KIDNEY_R / KIDNEY_TOTAL: tissue Kidney; for LIVER: tissue Liver; for A/G / ALP / ALT / AST / BUN / CRE / Ca / Cl / DBIL / GLC / IP / K / LDH / Na / PL / RALB / TBIL / TC / TG / TP / gamma-GTP: tissue Plasma

## C=CCO [ALLYL ALCOHOL]
72 h, time 3 day
  TERMINAL_BW: 229 g
  APTT: 18.4 s
  Bas: 0%
  Eos: 0.8%
  Fbg: 258.6 mg/dL
  Hb: 13.4 g/dL
  Ht: 39.4%
  Lym: 80%
  MCH: 20.9 pg
  MCHC: 33.9%
  MCV: 61.7 fL
  Mono: 3.4%
  Neu: 15.2%
  PT: 11.7 s
  Plat: 142.1 x10_4/uL
  RBC: 639.6 x10_4/ul
  Ret: 4.7%
  WBC: 128.3 x10_2/uL
  KIDNEY_L: 1 g
  KIDNEY_R: 1 g
  KIDNEY_TOTAL: 2 g
  LIVER: 11.1 g
  A/G: 1.5
  ALP: 874.6 IU/L
  ALT: 39.6 IU/L
  AST: 71 IU/L
  BUN: 13.6 mg/dL
  CRE: 0.4 mg/dL
  Ca: 10.5 mg/dL
  Cl: 103.2 meq/L
  DBIL: 0.058 mg/dL
  GLC: 206.2 mg/dL
  IP: 7.4 mg/dL
  K: 3.5 meq/L
  LDH: 221.2 IU/L
  Na: 141.2 meq/L
  PL: 125.4 mg/dL
  RALB: 3 g/dL
  TBIL: 0.1 mg/dL
  TC: 73.2 mg/dL
  TG: 59 mg/dL
  TP: 5 g/dL
  gamma-GTP: 1 IU/L
[…], time 7 day
  TERMINAL_BW: 238.1 g
  APTT: 21.6 s
  Bas: 0%
  Eos: 0.8%
  Fbg: 334.8 mg/dL
  Hb: 14 g/dL
  Ht: 40.7%
  Lym: 74%
  MCH: 20.6 pg
  MCHC: 34.4%
  MCV: 60.2 fL
  Mono: 5.6%
  Neu: 18.2%
  PT: 13.1 s
  Plat: 146.5 x10_4/uL
  RBC: 676 x10_4/ul
  Ret: 3.1%
  WBC: 193.8 x10_2/uL
  KIDNEY_L: 1 g
  KIDNEY_R: 1.1 g
  KIDNEY_TOTAL: 2.1 g
  LIVER: 12.6 g
  A/G: 1.2
  ALP: 938.4 IU/L
  ALT: 195.4 IU/L
  AST: 610 IU/L
  BUN: 11.4 mg/dL
  CRE: 0.4 mg/dL
  Ca: 10.6 mg/dL
  Cl: 102.4 meq/L
  DBIL: 0.088 mg/dL
  GLC: 182.4 mg/dL
  IP: 7 mg/dL
  K: 3.7 meq/L
  LDH: 310.6 IU/L
  Na: 140.6 meq/L
  PL: 130.8 mg/dL
  RALB: 3 g/dL
  TBIL: 0.2 mg/dL
  TC: 72.6 mg/dL
  TG: 62.8 mg/dL
  TP: 5.6 g/dL
  gamma-GTP: 2.6 IU/L
[…], time 14 day
  TERMINAL_BW: 285 g
  APTT: 19.2 s
  Bas: 0%
  Eos: 0.8%
  Fbg: 250.6 mg/dL
  Hb: 13.7 g/dL
  Ht: 40%
  Lym: 70.2%
  MCH: 19.6 pg
  MCHC: 34.2%
  MCV: 57.3 fL
  Mono: 3.8%
  Neu: 24.8%
  PT: 12.4 s
  Plat: 192.6 x10_4/uL
  RBC: 698 x10_4/ul
  Ret: 5.4%
  WBC: 181.3 x10_2/uL
  KIDNEY_L: 1.2 g
  KIDNEY_R: 1.2 g
  KIDNEY_TOTAL: 2.4 g
  LIVER: 14.4 g
  A/G: 1.3
  ALP: 758.4 IU/L
  ALT: 42.8 IU/L
  AST: 85.6 IU/L
  BUN: 14.2 mg/dL
  CRE: 0.4 mg/dL
  Ca: 10.7 mg/dL
  Cl: 101.8 meq/L
  DBIL: 0.07 mg/dL
  GLC: 202.6 mg/dL
  IP: 6.7 mg/dL
  K: 3.5 meq/L
  LDH: 234.8 IU/L
  Na: 141 meq/L
  PL: 140.8 mg/dL
  RALB: 3.4 g/dL
  TBIL: 0.1 mg/dL
  TC: 70.2 mg/dL
  TG: 69.6 mg/dL
  TP: 5.9 g/dL
  gamma-GTP: 1.4 IU/L
[…], time 28 day
  TERMINAL_BW: 374.2 g
  APTT: 20.5 s
  Bas: 0%
  Eos: 1.2%
  Fbg: 218.6 mg/dL
  Hb: 15.2 g/dL
  Ht: 44.1%
  Lym: 78%
  MCH: 18.7 pg
  MCHC: 34.5%
  MCV: 54.3 fL
  Mono: 2.8%
  Neu: 17.2%
  PT: 12.1 s
  Plat: 107.4 x10_4/uL
  RBC: 813.2 x10_4/ul
  Ret: 2.8%
  WBC: 109.1 x10_2/uL
  KIDNEY_L: 1.3 g
  KIDNEY_R: 1.3 g
  KIDNEY_TOTAL: 2.6 g
  LIVER: 16.7 g
  A/G: 1.2
  ALP: 615.8 IU/L
  ALT: 39.2 IU/L
  AST: 64 IU/L
  BUN: 16.8 mg/dL
  CRE: 0.5 mg/dL
  Ca: 10.5 mg/dL
  Cl: 102.6 meq/L
  DBIL: 0.068 mg/dL
  GLC: 220.6 mg/dL
  IP: 5.6 mg/dL
  K: 3.5 meq/L
  LDH: 188.2 IU/L
  Na: 139.6 meq/L
  PL: 135.6 mg/dL
  RALB: 3.3 g/dL
  TBIL: 0.1 mg/dL
  TC: 65.6 mg/dL
  TG: 98.6 mg/dL
  TP: 6 g/dL
  gamma-GTP: 1 IU/L
